# From US20050244481A1, “Personal care products and methods for inhibiting the adherence of flora to skin” (Kimberly-Clark Worldwide, Inc., priority 2004, published 2005)
# Assays:
# Type in all cases: cell-based
# [1] = tested on: Pseudomonas aeruginosa; test: Inhibition of P. aeruginosa attachment to EpiDerm skin culture (Example 3); settings: for % Attached as Compared to PBS Treatment: 37° C., 3 h, n = 2
# Protocol: The EpiDerm™ (MatTek, Ashland, Mass.) experiment was performed as outlined by the protocol supplied by the manufacturer for the EPI-200 EpiDerm™.
# Two days prior to the test bacterial culture was started by inoculating 10 ml of Luria-Bertani broth (LB) with one to two well isolated colonies of Pseudomonas aeruginosa (Dr. G. O'Toole, Dept. Microbiol. Dartmouth Medical School, Hanover, N.H.) and incubating the culture overnight at 37° C. with agitation at 125 rpm.
# One day prior to the test a 50 ml LB culture was inoculated with 50 μl of the overnight culture and grown overnight at 37° C. with agitation at 125 rpm. The optical density (at 650 nm) of the overnight culture was measured using a Spectramax spectrophotometer (molecular Devices, Sunnyvale, Calif.). The culture was centrifuged at 4,500×g for 10 minutes at 4° C. to pellet the bacteria. The bacteria were resuspended in phosphate buffered saline (PBS) to give a concentration of 2×10^10 cells/ml (1 OD equals 1×10^9 cells/ml).
# A 20% (w/v) stock of inulin (Jerusalem Artichoke, Sigma Chemical St Louis Mo.) was prepared by mixing 0.20 g of inulin with a sufficient amount of PBS to yield a final volume of 1 ml. […]
# For the applied dose, 50 μl of 20% inulin in PBS, 4% Tween 20 alone, or PBS alone was applied to the EpiDerm™ tissue followed immediately by 50 μl of either the bacteria cells or PBS. […] After three hours, the tissue was analyzed for the number of adhered bacteria.
# To measure adherence of P. aeruginosa to the EPIDERM™ tissue, the liquid remaining on the tissue was first transferred to a fresh microcentrifuge tube. […] Fluorescence was monitored in a microfluorometer at an excitation of 485 nm and an emission of 510 nm.
# Results are expressed as percent bacteria adhered to the tissue relative to the PBS control. […] The percent adherence was calculated by the formula: (RFU in bound fraction of the inulin or Tween 20 sample−average background RFU)/(average of the RFU in the bound fraction of the cells alone treatment−average background RFU)*100. […]
# [2] = tested on: Pseudomonas aeruginosa; test: Inhibition of P. aeruginosa attachment to porcine skin (Example 2, AlamarBlue); settings: for % Attached as Compared to PBS Treatment: 3 h, RFU at 60 min, n = 3
# Protocol: (§1) Two days prior to the test a bacterial culture was started by inoculating 10 ml of Luria-Bertani (LB) medium with one frozen bead containing Pseudomonas aeruginosa (Dr. G. O'Toole, Dept. Microbiol. Dartmouth Medical School, Hanover, N.H.), and incubating the culture overnight at 37° C. with agitation at 125 rpm.
# (§2) One day prior to the test a 100 ml LB culture was inoculated with 100 μl of the overnight culture and grown overnight at 37° C. with agitation at 125 rpm.
# (§3) The day of the test the optical density (OD) of the overnight culture was measured at 650 nm using a Spectramax spectrophotometer (Molecular Devices, Sunnyvale, Calif.). The culture was centrifuged at 4,500×g for 10 minutes at 4° C. to pellet the bacteria. The bacteria were resuspended in phosphate buffered saline (PBS) to give a concentration of 2×10^10 cells/ml (1 OD equals 1×10^9 cells/ml). […]
# (§4) The tissues were treated with 50 μl of inulin, Tween 20 alone, or PBS alone followed immediately by 50 μl of either the bacteria cells or PBS. […] AlamarBlue™ conversion was monitored kinetically in a microfluorometer (Fluoroskan Ascent, Thermo-Labsystems, Beverly, Mass.) for 60 minutes at 37° C., with an excitation of 544 nm and emission of 590 nm.
# (§5) Results are expressed as percent bacteria adhered to the tissue relative to the PBS control. The percentage is based on the number of cells that adhered to the skin in the inulin-containing (or Tween 20-containing control) samples as compared to the number of cells that adhered to the skin in the PBS control (i.e. PBS plus bacteria cells), as determined by the AlamarBlue® levels (RFU) at 60 minutes. The percent adherence was calculated by the formula: (RFU of the sample−RFU of appropriate background control)/(average of the RFU of the PBS treatment−average RFU of PBS background control)*100.
# (§6) The results for the three wells comprising each dilution were averaged, and the percent attached as compared to the PBS control treatment was calculated.
# [3] = tested on: Pseudomonas aeruginosa; test: Inhibition of P. aeruginosa attachment to VITRO-SKIN synthetic skin substrate (Example 2, AlamarBlue); settings: for % Attached as Compared to PBS Treatment: 3 h, RFU at 60 min, n = 3
# Protocol: as §1, §2, §3, §4, §5, §6
# [4] = tested on: Pseudomonas aeruginosa (ATCC # 27853); test: Inhibition of P. aeruginosa attachment to VITRO-SKIN synthetic skin substrate (Example 1, AlamarBlue); settings: 3 h, RFU at 120 min, n = 5
# Protocol: Two days prior to the test a bacterial culture was started by inoculating 10 ml Luria-Bertani (LB) (Sigma-Aldrich, St. Louis, Mo.) with one frozen bead of Pseudomonas aeruginosa (ATCC # 27853), and incubating the culture overnight at 37° C. with agitation at 125 rpm.
# One day prior to the test a 100 ml LB culture was inoculated with 100 μl of the overnight culture and grown overnight at 37° C. with agitation at 125 rpm. VITRO-SKIN® synthetic skin substrate (N19, IMS, Milford, Conn.) was cut with a #2 size boring tool and placed into the wells of a 96 well tissue culture plate (Costar #3596, Corning Inc., Corning, NY). The plates were kept in a humidity chamber overnight until use to prevent dehydration of the tissues.
# The day of the test, the optical density at 650 nm (OD) of the overnight culture was measured using a Spectramax spectrophotometer (Molecular Devices, Sunnyvale, Calif.). The culture was centrifuged at 4,500×g for 10 minutes at 4° C. (J-251 centrifuge, Beckman, Fullerton, Calif.) to pellet the bacteria. The bacteria were resuspended in phosphate buffered saline (PBS) to give a concentration of 2×10^10 cells/ml (1 OD equals 1×10^9 cells/ml).
# A 20% (w/v) solution of each inulin source (Chicory root, Dahlia tuber from Sigma-Aldrich, St. Louis, Mo.) was prepared by mixing 0.3 g inulin with PBS (Invitrogen, Carlsbad, Calif.) to a final volume of 1.5 ml. Tween 20 (Sigma-Aldrich, St. Louis, Mo.) was included as a positive control, and a 4% (v/v) stock was prepared by mixing 40 μl of Tween 20 to 960 μl PBS. The Tween 20 stock was diluted to prepare a 2% (v/v) solution of Tween 20 by mixing 800 μl of the 4% solution and 800 μl of PBS. A two fold dilution series was prepared for each inulin source as follows: • 10%: 800 μl of the 20% solution plus 800 μl of PBS • 5%: 800 μl of the 10% solution plus 800 μl of PBS • 2.5%: 800 μl of the 5% solution plus 800 μl of PBS • 1.25% 800 μl of the 2.5% solution plus 800 μl of PBS.
# All tests were run five times (n=5).
# For the applied dose, 50 μl of each inulin dilution, Tween 20 alone, or PBS alone was added to the VITRO-SKIN® discs followed immediately by 50 μl of either the bacteria cells or PBS. Samples containing 50 μl inulin dilutions and 50 μl PBS served as a background controls for the inulin samples. Samples containing 50 μl Tween 20 and 50 μl PBS served as background controls for the Tween 20 samples. Background controls for the PBS were 100 μl PBS. The plates were gently shaken at room temperature for three hours. The tissues were washed three times with 250 μl of PBS, and transferred to an opaque white 96 well plate (Costar # 3922). 200 μl of AlamarBlue™ (Trek Diagnostic Systems, Cleveland, Ohio) in LB (20 μl AlamarBlue™+180 μl LB per well) was added to each well. AlamarBlue™ conversion was monitored every 15 minutes in a microfluorometer (Fluoroskan Ascent, Thermo-Labsystems, Beverly, Mass.) for 120 minutes with an excitation of 544 nm and emission of 590 nm. In between readings the plates were covered and incubated at 37° C.
# as §5, with “(relative fluorescence units (RFU))” for “(RFU)”, “120” for “60”
# The results for the five wells for each dilution step were averaged, and the percent attached as compared to the PBS control treatment was calculated.
substance,measurement,setting,value
inulin [Jerusalem Artichoke],effect on attachment of P. aeruginosa to EpiDerm (in words),[1],inhibited attachment
same,% Attached as Compared to PBS Treatment,[1]; treatment concentration 10%,57%
same,effect on attachment of P. aeruginosa to porcine skin (in words),[2],also occurred on porcine skin
same,% Attached as Compared to PBS Treatment,[2]; treatment concentration 10%,25%
same,effect on attachment of P. aeruginosa to VITRO-SKIN substrate (in words),[3],inhibited attachment
same,% Attached as Compared to PBS Treatment,[3]; treatment concentration 10%,53%
Tween 20 [reference compound],% Attached as Compared to PBS Treatment,[1]; treatment concentration 2%,73%
same,% Attached as Compared to PBS Treatment,[2]; treatment concentration 2%,70%
same,% Attached as Compared to PBS Treatment,[3]; treatment concentration 2%,10%
same,% Attached as Compared to PBS Treatment,[4]; treatment concentration 2%,50%
inulin [Chicory root],% Attached as Compared to PBS Treatment,[4]; treatment concentration 1.25%,92%
same,% Attached as Compared to PBS Treatment,[4]; treatment concentration 2.5%,60%
same,% Attached as Compared to PBS Treatment,[4]; treatment concentration 5%,45%
same,% Attached as Compared to PBS Treatment,[4]; treatment concentration 10%,17%
inulin [Dahlia tuber],% Attached as Compared to PBS Treatment,[4]; treatment concentration 1.25%,86%
same,% Attached as Compared to PBS Treatment,[4]; treatment concentration 2.5%,59%
same,% Attached as Compared to PBS Treatment,[4]; treatment concentration 5%,48%
same,% Attached as Compared to PBS Treatment,[4]; treatment concentration 10%,29%
